Laboratory results from patent publication US12528761B2, “Thyromimetics” (Autobahn Therapeutics, Inc., priority 2020, dated 2026).

Assays:
[1] = Brain levels of parent acid after dosing prodrug (FIG. 1); assay type: in vivo; settings: compared with dosing Compound 15 itself
From the text: The acid compounds of the present invention (R^1=—OR^1c and R^1c=H) are active agonists selectively activating the TRβ receptor. The amide compounds of the present invention (R^1=—NR^1aR^1b) may act as substrates for the specific hydrolase enzyme fatty acid-amide hydrolase (FAAH), which cleaves the amide, liberating the thyromimetic. Thus, prodrug conversion to drug is enhanced in tissues that express high levels of FAAH such as the central nervous system. […] The ester compounds of the present invention (R^1=—OR^1c and R^1c≠H) are also prodrugs, typically processed through the action of esterases which may exist selectively in specific tissues.

[2] = molecular target: T1, recombinant human FAAH (rhFAAH) (Homo sapiens, UniProt O00519); experiment: FAAH substrate evaluation (formation of acid metabolite, LC-MS/MS); assay type: biochemical; set-up: key: A: ke is equal to or less than 1.0; B: ke is greater than 1.0 and less than or equal to 2.5; C: ke is greater than 2.5; NC: no conversion; settings: 0.5 ng/μL rhFAAH, 1 μM test compound, pH 8.0, room temperature, 0-60 minutes
T1 construct: purchased Cayman Chemical (Ann Arbor, MI, USA)
T1 sequence (O00519 1-579): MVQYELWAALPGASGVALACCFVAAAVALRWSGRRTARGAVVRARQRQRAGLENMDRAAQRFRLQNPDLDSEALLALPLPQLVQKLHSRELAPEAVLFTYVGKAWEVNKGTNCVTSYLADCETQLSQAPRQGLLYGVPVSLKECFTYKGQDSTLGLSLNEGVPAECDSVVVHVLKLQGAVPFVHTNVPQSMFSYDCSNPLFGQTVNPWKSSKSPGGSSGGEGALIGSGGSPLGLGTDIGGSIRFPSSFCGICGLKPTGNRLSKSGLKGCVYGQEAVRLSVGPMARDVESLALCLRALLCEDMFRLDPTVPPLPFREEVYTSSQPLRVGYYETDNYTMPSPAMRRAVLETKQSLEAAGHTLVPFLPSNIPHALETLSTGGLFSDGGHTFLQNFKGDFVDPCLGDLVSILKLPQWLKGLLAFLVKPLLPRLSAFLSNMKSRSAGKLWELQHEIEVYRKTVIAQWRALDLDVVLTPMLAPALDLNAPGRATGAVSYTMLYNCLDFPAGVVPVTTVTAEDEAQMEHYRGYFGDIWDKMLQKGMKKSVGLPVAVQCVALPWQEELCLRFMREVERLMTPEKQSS
How it was run: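 Test compound at 1 μM incubated at room temperature with 0.5 ng/μL rhFAAH, 0.1% BSA in Tris-EDTA pH 8.0; parallel incubations with 1 μM PF-3845 inhibitor. Samples quenched at 0-60 min; acid metabolite quantified by LC-MS/MS, ke taken as slope of metabolite concentration versus time.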

TRβ = molecular target: T2, TRβ (Homo sapiens, UniProt P10828); experiment: TR reporter-gene assay (Gal4 DBD hybrid, luciferase), TRβ; assay type: cell-based; settings: for EC50: HEK293-derived reporter cells, 24 hr treatment, read-out: TRβ EC50; for T3-SI (selectivity index, EC50 (TRα)/EC50 (TRβ)): class symbols
T2 construct: expressed in transfected cells; host or cells: HEK293
T2 sequence (P10828 217-461 limits assumed): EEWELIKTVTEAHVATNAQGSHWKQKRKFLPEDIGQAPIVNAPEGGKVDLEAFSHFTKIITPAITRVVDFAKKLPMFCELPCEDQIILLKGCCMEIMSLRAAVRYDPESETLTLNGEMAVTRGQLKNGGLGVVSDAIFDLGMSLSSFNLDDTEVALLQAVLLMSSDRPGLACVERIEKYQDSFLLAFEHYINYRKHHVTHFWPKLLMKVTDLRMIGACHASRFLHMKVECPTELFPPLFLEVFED
How it was run: (§1)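 HEK293 reporter cells expressing Gal4-DBD/TR ligand-binding hybrids driving firefly luciferase from a Gal4 UAS; cells pre-incubated 6 h, then treated 24 h at 37 °C in medium with 10% charcoal-stripped FBS (final DMSO 0.1–0.4%), in duplicate. Read-out was luminescence (RLU).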

TRα = molecular target: T3, TRα (Homo sapiens, UniProt P10827); experiment: TR reporter-gene assay (Gal4 DBD hybrid, luciferase), TRα; assay type: cell-based; settings: HEK293-derived reporter cells, 24 hr treatment; read-out: TRα EC50
T3 construct: expressed in transfected cells; host or cells: HEK293
T3 sequence (P10827 1-410 isoform P10827-2): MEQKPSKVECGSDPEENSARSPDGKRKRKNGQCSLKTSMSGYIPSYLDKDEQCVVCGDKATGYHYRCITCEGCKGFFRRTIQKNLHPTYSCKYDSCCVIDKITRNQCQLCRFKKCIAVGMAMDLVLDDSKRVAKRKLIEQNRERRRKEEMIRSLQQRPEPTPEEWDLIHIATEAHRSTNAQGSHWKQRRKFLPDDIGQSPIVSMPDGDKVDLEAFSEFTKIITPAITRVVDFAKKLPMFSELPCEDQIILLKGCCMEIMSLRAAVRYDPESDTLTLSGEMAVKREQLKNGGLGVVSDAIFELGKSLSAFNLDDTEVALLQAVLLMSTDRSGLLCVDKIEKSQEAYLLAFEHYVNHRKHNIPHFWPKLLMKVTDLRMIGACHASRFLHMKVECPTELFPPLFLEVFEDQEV
How it was run: as §1

| ke, observed rate constant for the acid metabolite formation [2] | Compound | further results |
| --- | --- | --- |
| C (ke is greater than 2.5) | CNC(=O)CSCc1cc(C)c(Cc2ccc(O)c(C(C)C)c2)c(Cl)c1F [Compound 217, 2-((3-chloro-2-fluoro-4-(4-hydroxy-3-isopropylbenzyl)-5-methylbenzyl)thio)-N-methylacetamide] | EC50 (TRβ): > 1 µM; T3-SI (selectivity index, EC50 (TRα)/EC50 (TRβ)) (TRβ): ++ (3× < T3-SI ≤ 30×); EC50 (TRα): > 1 µM |
| NC | CC(C)c1c(O)ccc(Cc2c(Cl)cc(NCC(=O)N(C)C)c(F)c2Cl)c1F [Compound 166, 2-((3,5-dichloro-2-fluoro-4-(2-fluoro-4-hydroxy-3-isopropylbenzyl)phenyl)amino)-N,N-dimethylacetamide] |  |
| A (ke is equal to or less than 1.0) | CC(C)c1c(O)ccc(Cc2c(Cl)cc(NCC(N)=O)c(F)c2Cl)c1F [Compound 163, 2-((3,5-dichloro-2-fluoro-4-(2-fluoro-4-hydroxy-3-isopropylbenzyl)phenyl)amino)acetamide] |  |
| C (ke is greater than 2.5) | CC(C)c1cc(Cc2c(Cl)cc(SCC(=O)NC3CC3)cc2Cl)ccc1O [Compound 180, N-cyclopropyl-2-((3,5-dichloro-4-(4-hydroxy-3-isopropylbenzyl)phenyl)thio)acetamide] |  |
| A (ke is equal to or less than 1.0) | CONC(=O)Cc1cc(Cl)c(Cc2ccc(O)c(C(C)C)c2F)c(Cl)c1 [Compound 208, 2-(3,5-dichloro-4-(2-fluoro-4-hydroxy-3-isopropylbenzyl)phenyl)-N-methoxyacetamide] | EC50 (TRβ): 0.1 to 1 µM; T3-SI (selectivity index, EC50 (TRα)/EC50 (TRβ)) (TRβ): ++ (3× < T3-SI ≤ 30×); EC50 (TRα): > 1 µM |
| A (ke is equal to or less than 1.0) | CCNC(=O)CSc1cc(Cl)c(Cc2ccc(O)c(C(C)C)c2)c(Cl)c1F [Compound 189, 2-((3,5-dichloro-2-fluoro-4-(4-hydroxy-3-isopropylbenzyl)phenyl)thio)-N-ethylacetamide] |  |
| A (ke is equal to or less than 1.0) | CC(C)c1cc(Cc2c(Cl)cc(SCC(=O)N3CCCC3)cc2Cl)ccc1O [Compound 182, 2-((3,5-dichloro-4-(4-hydroxy-3-isopropylbenzyl)phenyl)thio)-1-(pyrrolidin-1-yl)ethan-1-one] |  |

Further lines, the compound ahead of its results:

| Compound | ke, observed rate constant for the acid metabolite formation [2] | further results |
| --- | --- | --- |
| COC(=O)CCc1cc(Cl)c(Cc2ccc(O)c(C(C)c3ccc(F)cc3)c2F)c(Cl)c1 (centres unmarked) [Compound 17, methyl 3-(3,5-dichloro-4-(2-fluoro-3-(1-(4-fluorophenyl)ethyl)-4-hydroxybenzyl)phenyl)propanoate] |  | brain levels of the parent acid Compound 15 [1]: markedly higher brain levels |
| CON(C)C(=O)Cc1cc(Cl)c(Cc2ccc(O)c(C(C)C)c2F)c(Cl)c1 [Compound 105, 2-(3,5-dichloro-4-(2-fluoro-4-hydroxy-3-isopropylbenzyl)phenyl)-N-methoxy-N-methylacetamide] | NC | EC50 (TRβ): > 1 µM |
| CC(C)c1cc(Cc2c(Cl)cc(CCCC(=O)O)cc2Cl)ccc1O [Compound 16, 4-(3,5-dichloro-4-(4-hydroxy-3-isopropylbenzyl)phenyl)butanoic acid] |  | brain levels of the parent acid Compound 15 [1]: markedly higher brain levels; EC50 (TRβ): 0.1 to 1 µM; T3-SI (selectivity index, EC50 (TRα)/EC50 (TRβ)) (TRβ): +++ (T3-SI > 30×); EC50 (TRα): > 1 µM |
| CNC(=O)CNc1cc(Cl)c(Cc2ccc(O)c(C(C)C)c2F)c(Cl)c1 [Compound 47, 2-((3,5-dichloro-4-(2-fluoro-4-hydroxy-3-isopropylbenzyl)phenyl)amino)-N-methylacetamide] | A (ke is equal to or less than 1.0) |  |
| CC(C)c1c(O)ccc(Cc2c(Cl)cc(NCC(=O)Nc3cccnn3)c(F)c2Cl)c1F [Compound 157, 2-((3,5-dichloro-2-fluoro-4-(2-fluoro-4-hydroxy-3-isopropylbenzyl)phenyl)amino)-N-(pyridazin-3-yl)acetamide] | B (ke is greater than 1.0 and less than or equal to 2.5) |  |
| CNC(=O)CNc1cc(Cl)c(Cc2ccc(O)c(C(C)C)c2F)c(C)c1F [Compound 136, 2-((5-chloro-2-fluoro-4-(2-fluoro-4-hydroxy-3-isopropylbenzyl)-3-methylphenyl)amino)-N-methylacetamide] | A (ke is equal to or less than 1.0) |  |
| CNC(=O)/C(C)=C/c1cc(C)c(Cc2ccc(O)c(C(C)C)c2F)c(Cl)c1 [Compound 238, (E)-3-(3-chloro-4-(2-fluoro-4-hydroxy-3-isopropylbenzyl)-5-methylphenyl)-N,2-dimethylacrylamide] | B (ke is greater than 1.0 and less than or equal to 2.5) |  |
| CNC(=O)/C=C/c1cc(C)c(Cc2ccc(O)c(C(C)C)c2F)c(Cl)c1 [Compound 239, (E)-3-(3-chloro-4-(2-fluoro-4-hydroxy-3-isopropylbenzyl)-5-methylphenyl)-N-methylacrylamide] | NC |  |
| CNC(=O)/C=C/c1cc(Cl)c(Cc2ccc(O)c(C(C)C)c2F)c(Cl)c1 [Compound 115, (E)-3-(3,5-dichloro-4-(2-fluoro-4-hydroxy-3-isopropylbenzyl)phenyl)-N-methylacrylamide] | NC |  |
